Here are results for twelve compounds from ChEMBL document CHEMBL1128156, “Potent dual antagonists of endothelin and angiotensin II receptors derived from -phenoxyphenylacetic acids (Part III)” (Bioorg Med Chem Lett, 1995).

Assay [1] deals with T1, Endothelin receptor type B (Homo sapiens, UniProt P24530).
T1 sequence (P24530 whole entry): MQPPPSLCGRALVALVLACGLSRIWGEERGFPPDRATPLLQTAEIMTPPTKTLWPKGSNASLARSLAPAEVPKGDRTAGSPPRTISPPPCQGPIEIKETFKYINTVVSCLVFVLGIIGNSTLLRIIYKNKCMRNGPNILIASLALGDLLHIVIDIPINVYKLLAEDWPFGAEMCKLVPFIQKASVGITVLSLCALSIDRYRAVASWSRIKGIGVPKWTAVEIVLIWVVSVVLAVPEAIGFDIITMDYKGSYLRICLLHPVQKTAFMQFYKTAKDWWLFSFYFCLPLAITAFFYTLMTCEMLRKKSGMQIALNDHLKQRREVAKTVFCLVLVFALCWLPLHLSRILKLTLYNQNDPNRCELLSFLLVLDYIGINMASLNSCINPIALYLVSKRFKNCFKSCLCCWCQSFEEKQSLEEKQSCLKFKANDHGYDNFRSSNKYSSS
In words: Inhibition of human endothelin B (ETB) receptor expressed in CHO cells. The assay is classed as cell-based.

Another assay addresses T2, Endothelin-1 receptor (Homo sapiens, UniProt P25101).
T2 sequence (P25101 whole entry): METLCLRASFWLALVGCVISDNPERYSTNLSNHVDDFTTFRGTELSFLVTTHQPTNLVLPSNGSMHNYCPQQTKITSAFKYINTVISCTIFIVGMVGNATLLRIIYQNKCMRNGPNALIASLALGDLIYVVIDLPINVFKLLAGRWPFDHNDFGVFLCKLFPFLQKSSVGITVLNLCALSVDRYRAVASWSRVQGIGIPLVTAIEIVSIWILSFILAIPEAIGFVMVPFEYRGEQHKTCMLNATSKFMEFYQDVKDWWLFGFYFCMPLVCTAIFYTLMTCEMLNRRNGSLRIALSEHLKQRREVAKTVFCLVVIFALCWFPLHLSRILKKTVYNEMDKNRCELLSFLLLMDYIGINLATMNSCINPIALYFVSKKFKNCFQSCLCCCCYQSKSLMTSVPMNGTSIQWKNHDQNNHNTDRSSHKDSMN
Put plainly: Inhibition of human endothelin A (ETA) receptor expressed in CHO cells. The class given is cell-based.

The term IC50 denotes the concentration at which inhibition is half-maximal. A higher IC50 goes with weaker potency in that assay. Turning to `CCCc1cc(Cn2c(CC)nc3c(C)cc(C)nc32)cc(CCC)c1OC(C(=O)NS(=O)(=O)C(C)C)c1ccc2c(c1)OCO2` (centres undefined), the IC50 was found to be 1900 nM in assay [1] and 700 nM against Endothelin-1 receptor.

As for `CCCc1cc(Cn2c(CC)nc3c(C)cc(C)nc32)ccc1OC(C(=O)NS(=O)(=O)c1ccc(C(C)C)cc1)c1ccc2c(c1)OCO2` (centres undefined), the IC50 in assay [1] stood at 60 nM; against Endothelin-1 receptor, 24 nM.

For the compound `CCCc1cc(Cn2c(CC)nc3c(C)cc(C)nc32)cc(CCC)c1OC(C(=O)O)c1cc(Br)c(OC)c(OC)c1Br` (centres undefined), the figures for the IC50 (in assay [1]; at Endothelin-1 receptor) were 31000 nM and 11000 nM, respectively.

As for `CCCc1cc(Cn2c(CC)nc3c(C)cc(C)nc32)cc(CCC)c1OC(C(=O)NS(=O)(=O)c1ccc(CC(C)C)s1)c1ccc2c(c1)OCO2` (centres undefined), the IC50 in assay [1] came to 420 nM; at Endothelin-1 receptor, 600 nM.

On to `CCCc1cc(Cn2c(CC)nc3c(C)cc(C)nc32)cc(CCC)c1OC(C(=O)O)c1ccc2c(c1)OCO2` (centres undefined), for which the IC50 amounted to 230 nM in assay [1] and 38 nM against Endothelin-1 receptor.

As for `CCCc1cc(Cn2c(CC)nc3c(C)cc(C)nc32)ccc1OC(C(=O)O)c1ccccc1` (centres undefined), the IC50 in assay [1] was 47000 nM; at Endothelin-1 receptor, 11000 nM.

For `CCCc1cc(Cn2c(CC)nc3c(C)cc(C)nc32)cc(CCC)c1OC(C(=O)NS(=O)(=O)c1cccs1)c1ccc2c(c1)OCO2` (centres undefined), the IC50 in assay [1] was determined as 540 nM; against Endothelin-1 receptor, 820 nM.

Consider `CCCc1cc(Cn2c(CC)nc3c(C)cc(C)nc32)cc(CCC)c1OC(C(=O)NS(C)(=O)=O)c1ccc2c(c1)OCO2` (centres undefined), for which the IC50 in assay [1] was determined as 1200 nM; against Endothelin-1 receptor, 500 nM.

As for `CCCc1cc(Cn2c(CC)nc3c(C)cc(C)nc32)cc(CCC)c1OC(C(=O)NS(=O)(=O)c1ccccc1)c1ccc2c(c1)OCO2` (centres undefined), the IC50 in assay [1] came to 800 nM; at Endothelin-1 receptor it was 1600 nM.

`CCCc1cc(Cn2c(CC)nc3c(C)cc(C)nc32)ccc1OC(C(=O)NS(=O)(=O)c1ccc(CC(C)C)s1)c1ccc2c(c1)OCO2` (centres undefined): the IC50 amounted to 90 nM in assay [1] and 75 nM against Endothelin-1 receptor.

In the case of `CCCc1cc(Cn2c(CC)nc3c(C)cc(C)nc32)cc(CCC)c1OC(C(=O)NS(=O)(=O)c1ccc(C(C)C)cc1)c1ccc2c(c1)OCO2` (centres undefined), the values for the IC50 (in assay [1]; on Endothelin-1 receptor) were 1300 nM and 330 nM, respectively.

With `CCCc1cc(Cn2c(CC)nc3c(C)cc(C)nc32)ccc1OC(C(=O)O)c1ccc2c(c1)OCO2` (centres undefined), the IC50 in assay [1] was 1600 nM; against Endothelin-1 receptor, 840 nM.
